These results are taken from the supplement of paper PMC10307832.

What all share (assay): relative viability (nuclei count vs DMSO), 5 days (fraction); higher = more cells survive
Assay [1] concerns NCI-H1703. The method in brief:
(§1)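 For relative viability, nuclei counts in treated wells were divided by those in vehicle wells. Lung cancer cell lines had been pin-tool dosed in 1536-well plates the day after seeding and cultured for 5 days, then fixed and stained in one step (final 0.05% Triton X-100, 1% formaldehyde, 1 ug/ml Hoechst) and imaged at 4×. Doses were one drug alone or a fixed anchor-drug dose plus five library-drug doses (not always all listed) in √10 steps, and values are duplicate-plate medians.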

In assay [2] the test system is NCI-H1299. The method in brief:
as §1

The subject of assay [3] is NCI-H1623. In outline:
as §1

The subject of assay [4] is Calu-6. In outline:
as §1

Assay [5] relates to IA-LM. The method in brief:
as §1

The test system of assay [6] is EBC-1. The method in brief:
as §1

Assay [7] deals with NCI-H661. The method in brief:
as §1

Assay [8] deals with A549. The method in brief: as §1
The test system of assay [9] is NCI-H1648. In outline: as §1

Structures are written as SMILES.

Take `CC(C)Oc1cc(Nc2nc(N[C@@H](C)c3ccc(F)cn3)ncc2Cl)n[nH]1` [AZ23] + COc1cc2c(Oc3ccc(NC(=O)C4(C(=O)Nc5ccc(F)cc5)CC4)cc3F)ccnc2cc1OCCCN1CCOCC1 [Foretinib] (partner 0.25 µM): the relative viability in [1] (first compound 0.01 µM) is 0.331; in assay [1] (first compound 0.03162 µM) it was 0.342; in [1] (first compound 0.3162 µM), 0.314; in assay [2] (first compound 0.01 µM) it was 1.19; in assay [2] (first compound 0.03162 µM), 1.16; in assay [2] (first compound 0.3162 µM) it was 1.18. Also, the relative viability was found to be 0.712 in assay [3] (first compound 0.01 µM); 0.924 in assay [3] (first compound 0.03162 µM); 0.966 in assay [3] (first compound 0.3162 µM); 0.923 in [4] (first compound 0.03162 µM); 0.867 in [4] (first compound 0.3162 µM); 1.35 in assay [5] (first compound 0.01 µM). In addition, the relative viability amounted to 1.17 in assay [5] (first compound 0.03162 µM); 1.33 in assay [5] (first compound 0.3162 µM); 0.103 in assay [6] (first compound 0.01 µM); 0.105 in assay [6] (first compound 0.03162 µM); 0.0863 in [6] (first compound 0.3162 µM); 1.15 in [7] (first compound 0.01 µM). In addition, the relative viability in assay [7] (first compound 0.03162 µM) came to 1.06; in assay [7] (first compound 0.3162 µM), 1; in assay [8] (first compound 0.01 µM), 1.01; in assay [8] (first compound 0.03162 µM), 1.03; in assay [8] (first compound 0.3162 µM) it was 1.08.
On to `C[C@@H]1CN(CC(=O)Nc2ccc3c(c2)Cc2cccc(-c4cc(=O)cc(N5CCOCC5)o4)c2S3)C[C@H](C)O1` + COc1cccc2cc(-c3nc([C@H]4CC[C@H](C(=O)O)CC4)n4ncnc(N)c34)[nH]c12 [OSI-027] (partner 0.5 µM), for which the relative viability was determined as 0.247 in [9] (first compound 0.04 µM); 0.258 in assay [9] (first compound 0.1265 µM); 0.242 in assay [9] (first compound 0.4 µM); 0.235 in assay [9] (first compound 4 µM); 0.411 in [3] (first compound 0.04 µM); 0.413 in assay [3] (first compound 0.1265 µM). In addition, the relative viability stood at 0.412 in assay [3] (first compound 0.4 µM); 0.381 in assay [3] (first compound 4 µM); 0.694 in assay [7] (first compound 0.04 µM); 0.701 in assay [7] (first compound 0.1265 µM); 0.646 in assay [7] (first compound 0.4 µM); 0.666 in assay [7] (first compound 4 µM).
As for `CC(C)Oc1cc(Nc2nc(N[C@@H](C)c3ccc(F)cn3)ncc2Cl)n[nH]1` [AZ23] + COc1cccc2cc(-c3nc([C@H]4CC[C@H](C(=O)O)CC4)n4ncnc(N)c34)[nH]c12 [OSI-027] (partner 0.5 µM), the relative viability in [9] (first compound 0.03162 µM) came out at 0.258; in [9] (first compound 0.3162 µM), 0.256; in assay [3] (first compound 0.01 µM), 0.401; in [3] (first compound 0.03162 µM), 0.401; in assay [3] (first compound 0.3162 µM) it was 0.43; in assay [7] (first compound 0.01 µM) it was 0.666. The results for the relative viability in assay [7] (first compound 0.03162 µM) and in assay [7] (first compound 0.3162 µM) were 0.766 and 0.755, respectively.
For `COc1cc(N2CCC(C(N)=O)CC2)ccc1Nc1nc(N)c(Cl)c(Nc2ccccc2S(=O)(=O)C(C)C)n1` [HG-5-88-01] + Cc1cc(Nc2cc(N3CCN(C)CC3)nc(Sc3ccc(NC(=O)C4CC4)cc3)n2)n[nH]1 [Tozasertib] (partner 0.1 µM), the relative viability amounted to 0.406 in [9] (first compound 0.04 µM); 0.472 in assay [9] (first compound 0.1265 µM); 0.43 in assay [9] (first compound 0.4 µM); 0.183 in assay [9] (first compound 1.265 µM); 0.329 in assay [9] (first compound 4 µM); 0.512 in [3] (first compound 0.04 µM). For the same compound, the relative viability in assay [3] (first compound 0.1265 µM) was determined as 0.449; in [3] (first compound 0.4 µM), 0.399; in [3] (first compound 4 µM) it was 0.377; in [7] (first compound 0.04 µM), 0.354; in assay [7] (first compound 0.1265 µM), 0.338; in [7] (first compound 0.4 µM), 0.333. Also, the relative viability in assay [7] (first compound 1.265 µM) was determined as 0.397; in [7] (first compound 4 µM), 0.377.
As to `C[C@@H]1CN(CC(=O)Nc2ccc3c(c2)Cc2cccc(-c4cc(=O)cc(N5CCOCC5)o4)c2S3)C[C@H](C)O1` + COc1cc2c(Oc3ccc(NC(=O)C4(C(=O)Nc5ccc(F)cc5)CC4)cc3F)ccnc2cc1OCCCN1CCOCC1 [Foretinib] (partner 0.25 µM), the relative viability in assay [1] (first compound 0.04 µM) was determined as 0.367; in assay [1] (first compound 0.1265 µM), 0.299; in [1] (first compound 0.4 µM), 0.36; in [1] (first compound 4 µM), 0.295; in assay [2] (first compound 0.04 µM), 1.11; in [2] (first compound 0.1265 µM), 1.1. The relative viability in assay [2] (first compound 0.4 µM) came out at 1.06; in assay [2] (first compound 4 µM) it was 0.995; in [3] (first compound 0.04 µM), 0.771; in assay [3] (first compound 0.1265 µM), 0.837; in [3] (first compound 0.4 µM) it was 0.88; in [3] (first compound 4 µM), 0.786. The relative viability in assay [4] (first compound 0.04 µM) was determined as 0.859; in assay [4] (first compound 0.1265 µM), 0.841; in assay [4] (first compound 0.4 µM), 0.896; in [4] (first compound 4 µM) it was 0.639; in [5] (first compound 0.04 µM), 1.19; in assay [5] (first compound 0.1265 µM), 1.37. For the same compound, the relative viability in assay [5] (first compound 0.4 µM) was 1.27; in assay [5] (first compound 4 µM), 0.56; in assay [6] (first compound 0.04 µM), 0.119; in assay [6] (first compound 0.1265 µM), 0.113; in [6] (first compound 0.4 µM), 0.102; in [6] (first compound 4 µM), 0.129. For the same compound, the relative viability came to 0.776 in assay [7] (first compound 0.04 µM); 1.04 in assay [7] (first compound 0.1265 µM); 0.953 in [7] (first compound 0.4 µM); 0.927 in [7] (first compound 4 µM); 0.818 in assay [8] (first compound 0.04 µM); 1.01 in [8] (first compound 0.1265 µM). Also, the relative viability in [8] (first compound 0.4 µM) was 0.895; in assay [8] (first compound 4 µM), 0.823.
